# Patent publication US20030022821A1, “Bioactive peptides” (priority 1998, published 2003)
# Like-named read-outs stand apart in the source and are kept apart here. Ends that are not written are not given here. Peptide text beside a SMILES is read from it. * marks the point of attachment. Acm = CC(=O)NC*
# Columns and labels:
# [1] = test system: Meth A cells (murine sarcoma cell line); experiment: Cytotoxicity on Meth A cells, MTT method
# Procedure: Peptide solutions (0.1 ml) were added and the plates incubated at 37° C. for 30 minutes, 4 hours or 24 hours. The cytotoxicity was measured using the MTT method (Mosmann et al., J. Immunol. (1986) 136, 2348-2357).
# Cells in the growth phase were harvested and washed in fresh medium and injected subcutaneously into the abdominal region of the mice.
# The cytotoxic effect of the peptides on different murine and human tumor cells were measured using the MTT method (Mosmann et al., J. Immunol. (1986) 136, 2348-2357). MTT is a soluble tetrazolium salt yielding a yellow solution when prepared in media or salt solutions lacking phenol red. Dissolved MTT is converted to an insoluble purple formazan by cleavage of the tetrazolium ring by dehydrogenase enzymes. This water insoluble formazan can be solubilized using isopropanol or other solvents and the dissolved material is measured spectrophotometrically. The absorbance was measured as a function of concentration of converted dye.
# Cells were maintained in […] medium containing 10% FBS, 1% L-glutamine and 0.1% penicillin and streptomycin. Cells to be used in the assay were grown to confluency, trypsinated and split to single cell suspension, counted and centrifuged at 1500 rpm for 10 min. […][…] of cell suspension was transferred to each well on a 96-well microtiter plate. The cells were stimulated by adding […] of various concentrations of peptides diluted with assay medium to each well. The final concentrations of peptide were for example: 5, 10, 20, 40, 60, 80, 100, and 200 mg/ml. […] As a negative control only medium was added to the cells, and as a positive control (100% killing) 1% triton X-100 was added. Following an incubation period of 4 h., 20 ml MTT dissolved in PBS at a concentration of 5 mg/ml was added to each well, and the plate was incubated further for 2 h. 130 ml of the supernatant were then removed and […] acid alcohol (0.04-0.1 N HCl in isopropanol) added to each well to dissolve the dark blue crystals. The plate was placed on a shaker for 1 h and read spectrophotometrically at 590 nm in a microtiterplate reader using the Softmaxâ program.
# [2] = test system: Escherichia coli ATCC 25922; type: cell-based
# Outline: (§1)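 Microdilution MIC; 1% Bacto Peptone water; inoculum 2×10^6 CFU/ml, mid-log cells; triplicates; peptide levels verified by HPLC before and after addition to wells.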
# [3] = test system: Staphylococcus aureus ATCC 25923; type: cell-based
# Outline: as §1
# human red blood cells = experiment: Hemolytic assay; type: cell-based; settings: red cells of human
# normal fibroblasts = type: cell-based
# [4] = read-out: MethA IC 50, Table 7, peptide required to kill 50% of MethA cells
Compound,IC50 ([1]; 4 h) [µM],IC50 (normal fibroblasts) [µM],Mic E-coli ([2]; ATCC 25922) [µM],Mic S. Aureus ([3]; ATCC 25923) [µM],EC50 (human red blood cells) [µM],other results
CSCC[C@H](NC(=O)[C@H](CCCNC(=N)N)NC(=O)[C@H](Cc1c(S(=O)(=O)c2c(C)c(C)c3c(c2C)CCC(C)(C)O3)[nH]c2ccccc12)NC(=O)[C@H](CCC(N)=O)NC(=O)[C@H](Cc1c[nH]c2ccccc12)NC(=O)[C@H](CCCNC(=N)N)NC(=O)[C@H](CCCNC(=N)N)NC(=O)[C@H](CSCNC(C)=O)NC(=O)[C@H](CCCCN)NC(=O)[C@@H](N)Cc1ccccc1)C(=O)N[C@@H](CCCCN)C(=O)N[C@@H](CCCCN)C(=O)N[C@@H](CC(C)C)C(=O)NCC(=O)N[C@@H](C)C(=O)O [LFB PMC8],,,,,,MethA IC50 ([1]; 4 h): 150 µg/mL; MIC E. coli ([2]; ATCC 25922): 18 µg/mL; MIC S. aureus ([3]; ATCC 25923): 10 µg/mL; % Hemolysis 10 μg/ml (human red blood cells): 3.6%; % Hemolysis 100 μg/ml (human red blood cells): 9.79%
"CC(=O)NCSC[C@H](NC(=O)[C@H](CCCCN)NC(=O)[C@@H](N)Cc1ccccc1)C(=O)N[C@@H](Cc1c[nH]c2ccccc12)C(=O)N[C@@H](CCCNC(=N)N)C(=O)N[C@@H](Cc1c[nH]c2ccccc12)C(=O)N[C@@H](CCC(N)=O)C(=O)N[C@@H](Cc1c[nH]c2ccccc12)C(=O)N[C@@H](CCCNC(=N)N)C(=O)N[C@@H](Cc1c[nH]c2ccccc12)C(=O)N[C@@H](CCCCN)C(=O)N[C@@H](CCCCN)C(=O)N[C@@H](CC(C)C)C(=O)NCC(=O)N[C@@H](C)C(=O)O [LFB W4, 10, H2N-Phe-Lys-Cys-Trp-Arg-Trp-Gln-Trp-Arg-Trp-Lys-Lys-Leu-Gly-Ala-COOH] (H-FKC(Acm)WRWQWRWKKLGA-OH)",,,,,,"Meth A IC50 ([1]; 4 h): 500 µg/mL; MIC E. coli ([2]; ATCC 25922): 5 µg/mL; MIC E. coli ([2]; Table 6): 5 µg/mL; MIC S. aureus ([3]; ATCC 25923): 10 µg/mL; MIC S. aureus ([3]; Table 6, unit assumed): 10 µg/mL; % Hemolysis 10 μg/ml (human red blood cells): 4.45%; % Hemolysis 100 μg/ml (human red blood cells): 27.8%"
"PAARKAFRWAWRMLKKAA-OH [LFB 14-31A2,3,6, 10, 17F7K16L14R4]",24.1,190,15,10,> 463,
PAIRKAFRIAIRMLKKAA-OH,47,280,2.5,10,> 487,
"PAIRKAFRIAWRMLKKAA-OH [LFB 14-31A2,6, 10, 17F7I3, 9K16L14R4]",36,108,5,5,> 470,
"PAIRKAFRWAIRMLKKAA-OH [LFB 14-31A2,6, 10, 17F7I3, 11K16L14R4]",16,45,2.5,5,413,
"PAIRKAFRWAWRMLKKAA-OH [LFB 14-31A2,6, 10, 17F7I3K16L14R4]",9,20,,,323,Mic E-coli ([2]; Table 17): 2/4; Mic S. Aureus ([3]; Table 17): 2/4
"PAKRKAFRWAWRMLKKAA-OH [LFB 14-31A2,6, 10, 17F7K3, 16L14R4]",230,230,,,> 451,
"PAWFKAFRWAWRMLKKAA-OH [LFB 14-31 A2,6, 10, 17F7K16L14]",,,,,> 440,"IC50 [1, 4]: 28.1 µM; MIC E. coli ([2]; ATCC 25922): 10 µg/mL; MIC S. aureus ([3]; ATCC 25923): 10 µg/mL"
"PAWRKAARWAWRMLKKAA-OH [LFB 14-31A2,6, 10, 17F7K16L14R4 F7 → A7]",34.6,289,15,10,> 455,
"PAWRKAFRAAARMLKKAA-OH [LFB 14-31A2,6,9, 10, 11, 17F7K16L14R4]",110,> 489,30,30,> 489,
"PAWRKAFRAAWRMLKKAA-OH [LFB 14-31A2,6,9, 10, 17F7K16L14R4]",16.2,46.3,10,5,382,
"PAWRKAFRIAIRMLKKAA-OH [LFB 14-31A2,6, 10, 17F7I9, 11K16L14R4]",22,26,,,,
"PAWRKAFRIAWRMLKKAA-OH [LFB 14-31A2,6, 10, 17F7I9K16L14R4]",12,26,5,<1,,
"PAWRKAFRKAKRMLKKAA-OH [LFB 14-31A2,6, 10, 17F7K9, 11, 16L14R4]",> 300,> 463,,,> 463,
"PAWRKAFRKAWRMLKKAA-OH [LFB 14-31A2,6, 10, 17F7K9, 16L14R4]",13.5,58.7,30,10,> 451,
"PAWRKAFRWAARMLKKAA-OH [LFB 14-31A2,6, 10, 11, 17F7K16L14R4]",11.1,46.3,10,>2.5,278,
"PAWRKAFRWAIRMLKKAA-OH [LFB 14-31A2,6, 10, 17F7I11K16L14R4]",6,15,,<1,,Mic E-coli ([2]; Table 17): 2/5
"PAWRKAFRWAKRMLKKAA-OH [LFB 14-31A2,6, 10, 17F7K11, 16L14R4]",7.9,30.7,5,<2.5,> 451,
"PAWRKAFRWAWRMKKLAA-OH [LFB 14-31 A2,6, 10, 17F7R4]",,,,,> 440,"IC50 [1, 4]: 30.2 µM; MIC E. coli ([2]; ATCC 25922): 10 µg/mL; MIC S. aureus ([3]; ATCC 25923): 2.5 µg/mL"
"PAWRKAFRWAWRMLKKAA-OH [LFB 14-31A2,6, 10, 17F7K16L14R4]",6.6,17,,2,110,Mic E-coli ([2]; Table 17): 2/4
"PAWRKARRWAWRMKKLAA-OH [LFB 14-31 A2,6, 10, 17R4]",,,,,> 438,"IC50 [1, 4]: 75.8 µM; MIC E. coli ([2]; ATCC 25922): 30 µg/mL; MIC S. aureus ([3]; ATCC 25923): 20 µg/mL"
RRWAWRMKK-OH [LFB 20-28 A4],,,,,,MethA IC50 ([1]; 4 h): 500 µg/mL; MIC E. coli ([2]; ATCC 25922): >100 µg/mL; MIC S. aureus ([3]; ATCC 25923): >100 µg/mL; % Hemolysis 10 μg/ml (human red blood cells): 0%; % Hemolysis 100 μg/ml (human red blood cells): 1.68%
RRWQWRMKKL-OH [LFB 20-29],,,,,,MethA IC50 ([1]; 4 h): 500 µg/mL; MIC E. coli ([2]; ATCC 25922): 60 µg/mL; MIC S. aureus ([3]; ATCC 25923): >100 µg/mL; % Hemolysis 10 μg/ml (human red blood cells): 1.75%; % Hemolysis 100 μg/ml (human red blood cells): 2.74%
